Measurements as given in US10703746B2, “Mutant IDH1 inhibitors useful for treating cancer” (THE UNITED STATES OF AMERICA, AS REPRESENTED BY THE …, priority 2014, dated 2020).

Legend:
[1] = molecular target: IDH1 R132C (Homo sapiens, UniProt O75874, R132C); test: IDH1 R132C enzymatic assay (NADPH depletion coupled to diaphorase/resazurin); format: biochemical; details: IDH1 R132C enzymatic inhibition, IC50 class
Protocol: (§1) Assays were conducted in a 1536-well black solid-bottom plate with a final assay volume of 9 μL.
For IDH1 R132C, 3 μL of enzyme (0.00032 mg/mL IDH1 […], 10% glycerol, 50 mM potassium phosphate pH 6.5, 5 mM MgCl2, 0.03% BSA) were added to the plate, followed by the addition of 23 nL of test compound in DMSO. The plate was lidded and incubated at room temperature for 30 minutes at which time 3 μL of substrate were added (0.012 mM NADPH, 0.6 mM α-KG, 10% glycerol, 50 mM potassium phosphate pH 6.5, 5 mM MgCl2, 0.03% BSA). […]

[2] = molecular target: IDH1 R132H (Homo sapiens, UniProt O75874, R132H); test: IDH1 R132H enzymatic assay (NADPH depletion coupled to diaphorase/resazurin); format: biochemical; details: IDH1 R132H enzymatic inhibition, IC50 class
Protocol: as §1
Specifically, for IDH1 R132H, 3 μL of enzyme (4 mM β-ME, 0.0005 mg/mL IDH1 R132H, 150 mM NaCl, 20 mM Tris pH 7.5, 10 mM MgCl2, 0.05% BSA) were added to the plate, followed by the addition of 23 nL of test compound in DMSO. The plate was lidded and incubated at room temperature for 30 minutes at which time 3 μL of substrate were added (0.016 mM NADPH, 2 mM α-KG, 150 mM NaCl, 20 mM Tris pH 7.5, 10 mM MgCl2, 0.05% BSA). This reaction was incubated at room-temperature for 60 minutes at which time the detection mix was added (0.06 mg/mL diaphorase, 0.036 mM resazurin, 150 mM NaCl, 20 mM Tris pH 7.5, 10 mM MgCl2, 0.05% BSA). […]

IDH1 R132C, sequence (O75874 whole entry R132C): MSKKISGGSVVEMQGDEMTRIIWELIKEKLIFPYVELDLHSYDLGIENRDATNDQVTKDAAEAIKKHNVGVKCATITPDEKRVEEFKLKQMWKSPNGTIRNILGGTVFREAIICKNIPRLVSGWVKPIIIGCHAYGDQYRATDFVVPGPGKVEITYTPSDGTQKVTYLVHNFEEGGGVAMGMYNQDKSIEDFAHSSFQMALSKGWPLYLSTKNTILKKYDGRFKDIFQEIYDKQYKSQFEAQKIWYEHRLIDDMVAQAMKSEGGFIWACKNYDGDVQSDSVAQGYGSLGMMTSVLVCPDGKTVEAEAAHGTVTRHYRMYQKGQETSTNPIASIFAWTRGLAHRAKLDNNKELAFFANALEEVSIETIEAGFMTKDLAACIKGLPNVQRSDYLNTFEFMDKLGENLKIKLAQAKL
IDH1 R132H, sequence (O75874 whole entry R132H): as the sequence (O75874 whole entry R132C) above, with C132H counted along it

CCc1cccc(CC)c1-n1c(C)c(C(=O)NC2CCCC(N)C2)cc(-c2nc(-c3ccc(Cl)cc3)cs2)c1=O (mixture of isomers) [Compound 126]
IC50 [1]: 1000 to 5000 nM
IC50 [2]: 5000 to 20000 nM

CC1(C)CC(=O)c2cc(-c3nc(-c4ccc(Cl)cc4)cs3)c(=O)n(-c3ccccc3OCc3ccccc3)c2C1 [Compound 1]
IC50 [1]: 300 to 1000 nM
IC50 [2]: > 20000 nM

CCc1cccc(CC)c1-n1c(CC(C)C)c(C(=O)N2CCN[C@H](C(=O)OC)C2)cc(-c2nc(-c3ccc(Cl)cc3)cs2)c1=O [Compound 2]
IC50 [1]: 300 to 1000 nM
IC50 [2]: 1000 to 5000 nM

CCOC(=O)c1cc(-c2nc(-c3ccc(Cl)cc3)cs2)c(=O)n(-c2c(CC)cccc2CC)c1-c1ccccc1 [Compound 3]
IC50 [1]: > 20000 nM
IC50 [2]: > 20000 nM

CCc1cccc(CC)c1-n1c(CC(C)C)c(C(=O)NCCO)cc(-c2nc(-c3ccc(Cl)cc3)cs2)c1=O [Compound 4]
IC50 [1]: 300 to 1000 nM
IC50 [2]: < 300 nM

CC1(C)CC(=O)c2cc(-c3nc(-c4ccc(Cl)cc4)cs3)c(=O)n(-c3ccccc3CN)c2C1 [Compound 5]
IC50 [1]: 5000 to 20000 nM
IC50 [2]: 5000 to 20000 nM

CCc1cccc(CC)c1-n1c(C)c(C(=O)NCCCN)cc(-c2nc(-c3ccc(Cl)cc3)cs2)c1=O [Compound 6]
IC50 [1]: 1000 to 5000 nM
IC50 [2]: 1000 to 5000 nM

CCc1cccc(CC)c1-n1c(C)c(C(=O)NC2CCCC2)cc(-c2nc(-c3ccc(Cl)cc3)cs2)c1=O [Compound 7]
IC50 [1]: 1000 to 5000 nM
IC50 [2]: > 20000 nM

CCc1cccc(CC)c1-n1c(CC(C)C)c(C(=O)N2CCN[C@@H](CO)C2)cc(-c2nc(-c3ccc(Cl)cc3)cs2)c1=O [Compound 8]
IC50 [1]: < 300 nM
IC50 [2]: < 300 nM

CC1(C)CC(=O)c2cc(-c3nc(-c4ccc(Cl)cc4)cs3)c(=O)n(-c3ccccc3OC(F)(F)F)c2C1 [Compound 9]
IC50 [1]: 300 to 1000 nM
IC50 [2]: 1000 to 5000 nM

CCc1cccc(CC)c1-n1c(CC(C)C)c(C(=O)N[C@H](CO)c2ccccc2)cc(-c2nc(-c3ccc(Cl)cc3)cs2)c1=O [Compound 10]
IC50 [1]: < 300 nM
IC50 [2]: 300 to 1000 nM

CC(c1ccccc1)n1c2c(cc(-c3nc(-c4ccc(Cl)cc4)cs3)c1=O)C(=O)CC(C)(C)C2 (stereo not shown) [Compound 11]
IC50 [1]: 5000 to 20000 nM
IC50 [2]: > 20000 nM

COc1ccccc1-n1c2c(cc(-c3nc(-c4ccc(Cl)cc4)cs3)c1=O)C(=O)CC(C)(C)C2 [Compound 12]
IC50 [1]: 1000 to 5000 nM
IC50 [2]: 1000 to 5000 nM

Cc1noc(C)c1-n1c2c(cc(-c3nc(-c4ccc(Cl)cc4)cs3)c1=O)C(=O)CC(C)(C)C2 [Compound 13]
IC50 [1]: 1000 to 5000 nM
IC50 [2]: > 20000 nM

CCc1cccc(CC)c1-n1c(CC(C)C)c(C(=O)O)cc(-c2nc(-c3ccc(Cl)cc3)cs2)c1=O [Compound 14]
IC50 [1]: 5000 to 20000 nM
IC50 [2]: 1000 to 5000 nM

CCc1cccc(CC)c1-n1c(C)c(C(=O)NCCNC)cc(-c2nc(-c3ccc(Cl)cc3)cs2)c1=O [Compound 15]
IC50 [1]: < 300 nM
IC50 [2]: 1000 to 5000 nM

CCc1cccc(CC)c1-n1c(C)c(C(=O)N2CCN[C@H](CO)C2)cc(-c2nc(-c3ccc(Cl)cc3)cs2)c1=O [Compound 16]
IC50 [1]: 300 to 1000 nM
IC50 [2]: 1000 to 5000 nM

Cc1cccc(CN2CCN(C)CC2)c1-n1c2c(cc(-c3nc(-c4ccc(Cl)cc4)cs3)c1=O)C(=O)CC(C)(C)C2 [Compound 17]
IC50 [1]: 5000 to 20000 nM
IC50 [2]: 5000 to 20000 nM

CCc1cccc(CC)c1-n1c(C)c(C(=O)NC2CCCC(O)C2)cc(-c2nc(-c3ccc(Cl)cc3)cs2)c1=O (stereo not shown) [Compound 18]
IC50 [1]: 1000 to 5000 nM
IC50 [2]: 5000 to 20000 nM

CC1(C)CC(=O)c2cc(-c3nc(-c4ccc(Cl)cc4)cs3)c(=O)n(C3CCCc4ccccc43)c2C1 (stereo not shown) [Compound 19]
IC50 [1]: 300 to 1000 nM
IC50 [2]: > 20000 nM

CCc1cccc(CC)c1-n1c(CC(C)C)c(C(=O)N[C@@H](CO)c2ccccc2)cc(-c2nc(-c3ccc(Cl)cc3)cs2)c1=O [Compound 20]
IC50 [1]: < 300 nM
IC50 [2]: 300 to 1000 nM

CCc1cccc(CC)c1-n1c(C)c(C(=O)N2CCN[C@@H](C(=O)O)C2)cc(-c2nc(-c3ccc(Cl)cc3)cs2)c1=O [Compound 21]
IC50 [1]: 1000 to 5000 nM
IC50 [2]: 300 to 1000 nM

Cc1ccccc1-n1c2c(cc(-c3nc(-c4ccc(Cl)cc4)cs3)c1=O)C(=O)CC(C)(C)C2 [Compound 22]
IC50 [1]: 300 to 1000 nM
IC50 [2]: 1000 to 5000 nM

COc1ccc(OC)c(-n2c3c(cc(-c4nc(-c5ccc(Cl)cc5)cs4)c2=O)C(=O)N(C(=O)OC(C)(C)C)CC3)c1 [Compound 23]
IC50 [1]: 5000 to 20000 nM
IC50 [2]: > 20000 nM

COc1ccc(OC)c(-n2c3c(cc(-c4nc(-c5ccc(Cl)cc5)cs4)c2=O)C(=O)CC3)c1 [Compound 24]
IC50 [1]: 5000 to 20000 nM
IC50 [2]: > 20000 nM

CC1(C)CC(=O)c2cc(-c3nc(-c4ccc(Cl)cc4)cs3)c(=O)n(-c3ccccc3OC3CC3)c2C1 [Compound 25]
IC50 [1]: 300 to 1000 nM
IC50 [2]: 1000 to 5000 nM

Cc1ccc(N)cc1-n1c2c(cc(-c3nc(-c4ccc(Cl)cc4)cs3)c1=O)C(=O)CC(C)(C)C2 [Compound 26]
IC50 [1]: 1000 to 5000 nM
IC50 [2]: 1000 to 5000 nM

COc1ccc(C(=O)O)cc1-n1c2c(cc(-c3nc(-c4ccc(Cl)cc4)cs3)c1=O)C(=O)CC(C)(C)C2 [Compound 27]
IC50 [1]: 5000 to 20000 nM
IC50 [2]: 5000 to 20000 nM

CCc1cccc(CC)c1-n1c(C(C)C)c(C(=O)N2CCN[C@@H](C(=O)O)C2)cc(-c2nc(-c3ccc(Cl)cc3)cs2)c1=O [Compound 28]
IC50 [1]: < 300 nM
IC50 [2]: < 300 nM

CCc1cccc(CC)c1-n1c(CC(C)C)c(C(=O)NC[C@@H](NC(C)=O)C(=O)O)cc(-c2nc(-c3ccc(Cl)cc3)cs2)c1=O [Compound 29]
IC50 [1]: 1000 to 5000 nM
IC50 [2]: 1000 to 5000 nM

CC1(C)CC(=O)c2cc(-c3nc(-c4ccc(F)cc4)cs3)c(=O)n(-c3ccccc3C(F)(F)F)c2C1 [Compound 30]
IC50 [1]: 300 to 1000 nM
IC50 [2]: 300 to 1000 nM

CCc1cccc(CC)c1-n1c(C(C)C)c(C(=O)N2CCNC(C(=O)OC)C2)cc(-c2nc(-c3ccc(Cl)cc3)cs2)c1=O (stereo not shown) [Compound 31]
IC50 [1]: 300 to 1000 nM
IC50 [2]: 1000 to 5000 nM

CCc1cccc(CC)c1-n1c(C(C)C)c(C(=O)NC)cc(-c2nc(-c3ccc(Cl)cc3)cs2)c1=O [Compound 32]
IC50 [1]: 300 to 1000 nM
IC50 [2]: 300 to 1000 nM

CCc1cccc(CC)c1-n1c(CC(C)C)c(C(=O)NC)cc(-c2nc(-c3ccc(Cl)cc3)cs2)c1=O [Compound 33]
IC50 [1]: < 300 nM
IC50 [2]: 300 to 1000 nM

CCc1cccc(CC)c1-n1c(CC(C)C)c(C(=O)N2CCCC(CO)C2)cc(-c2nc(-c3ccc(Cl)cc3)cs2)c1=O (stereo not shown) [Compound 34]
IC50 [1]: 300 to 1000 nM
IC50 [2]: 1000 to 5000 nM

CCc1cccc(CC)c1-n1c(C(C)C)c(C(=O)NC2CCNCC2)cc(-c2nc(-c3ccc(Cl)cc3)cs2)c1=O [Compound 35]
IC50 [1]: 1000 to 5000 nM
IC50 [2]: 1000 to 5000 nM

CCc1cccc(CC)c1-n1c(C)c(C(=O)N2CCC(C(=O)O)C2)cc(-c2nc(-c3ccc(Cl)cc3)cs2)c1=O (stereo not shown) [Compound 36]
IC50 [1]: > 20000 nM
IC50 [2]: > 20000 nM

CCc1cccc(CC)c1-n1c(C(C)C)c(C(=O)N2CCNC[C@H]2C)cc(-c2nc(-c3ccc(Cl)cc3)cs2)c1=O [Compound 37]
IC50 [1]: 300 to 1000 nM
IC50 [2]: 1000 to 5000 nM

CCc1cccc(CC)c1-n1c(C)c(C(=O)N2CCN[C@@H](C)C2)cc(-c2nc(-c3ccc(Cl)cc3)cs2)c1=O [Compound 38]
IC50 [1]: 300 to 1000 nM
IC50 [2]: < 300 nM

CCc1cccc(CC)c1-n1c(CC(C)C)c(C(=O)N2CCNCC2)cc(-c2nc(-c3ccc(OCc4ccccc4)cc3)c(C)s2)c1=O [Compound 39]
IC50 [1]: 5000 to 20000 nM
IC50 [2]: 5000 to 20000 nM

CCc1cccc(CC)c1-n1c(C)c(C(=O)N2CCN[C@H](C(=O)OC)C2)cc(-c2nc(-c3ccc(Cl)cc3)cs2)c1=O [Compound 41]
IC50 [1]: 1000 to 5000 nM
IC50 [2]: 5000 to 20000 nM

CNc1ccccc1-n1c2c(cc(-c3nc(-c4ccc(Cl)cc4)cs3)c1=O)C(=O)CC(C)(C)C2 [Compound 42]
IC50 [1]: 1000 to 5000 nM
IC50 [2]: 1000 to 5000 nM

CCc1cccc(CC)c1-n1c(CC(C)C)c(C(=O)N2CCNCC2C)cc(-c2nc(-c3ccc(Cl)cc3)cs2)c1=O (stereo not shown) [Compound 43]
IC50 [1]: < 300 nM
IC50 [2]: 300 to 1000 nM

CCCCc1ccc(-c2nc(-c3cc(C(=O)N4CCNCC4)c(CC(C)C)n(-c4c(CC)cccc4CC)c3=O)sc2C)cc1 [Compound 44]
IC50 [1]: 1000 to 5000 nM
IC50 [2]: 1000 to 5000 nM

COc1cccc(C(=O)O)c1-n1c2c(cc(-c3nc(-c4ccc(Cl)cc4)cs3)c1=O)C(=O)CC(C)(C)C2 [Compound 46]
IC50 [1]: 1000 to 5000 nM
IC50 [2]: 1000 to 5000 nM

CCc1cccc(CC)c1-n1c(C(C)C)c(C(=O)N[C@H](C)CO)cc(-c2nc(-c3ccc(Cl)cc3)cs2)c1=O [Compound 47]
IC50 [1]: 1000 to 5000 nM
IC50 [2]: 1000 to 5000 nM

CCc1cccc(CC)c1-n1c(CC(C)C)c(C(=O)N2CCNC(C(N)=O)C2)cc(-c2nc(-c3ccc(Cl)cc3)cs2)c1=O (stereo not shown) [Compound 48]
IC50 [1]: < 300 nM
IC50 [2]: 300 to 1000 nM

CC1(C)CC(=O)c2cc(-c3nc(-c4ccc(Cl)cc4)cs3)c(=O)n(-c3ccccc3Oc3ccccc3)c2C1 [Compound 49]
IC50 [1]: < 300 nM
IC50 [2]: < 300 nM

CC1(C)CC(=O)c2cc(-c3nc(-c4ccc(Cl)cc4)cs3)c(=O)n(-c3ccccc3C3CC3)c2C1 [Compound 50]
IC50 [1]: 300 to 1000 nM
IC50 [2]: 300 to 1000 nM

CC(C)Sc1ccccc1-n1c2c(cc(-c3nc(-c4ccc(Cl)cc4)cs3)c1=O)C(=O)CC(C)(C)C2 [Compound 51]
IC50 [1]: 1000 to 5000 nM
IC50 [2]: > 20000 nM
